Assay results as given in article PMC11178820, “Synthesis of novel aryl-substituted 2-aminopyridine derivatives by the cascade reaction of 1,1-enediamines with vinamidinium salts to develop novel anti-Alzheimer agents” (Scientific Reports, 2024).
Entries after “also recorded” stand apart in the source; their conditions may differ. Read-outs that look alike come from different tables or passages of the source.

What was measured:
BChE [1] = target: T1, BChE (Homo sapiens, UniProt P06276); experiment: BChE inhibition, modified Ellman method; assay type: biochemical; conditions: for inhibition at 50 µM: read-out: BChE % inhibition at 50 µM; for BChE inhibition, outcome in words: 50 µM screening
T1 sequence (P06276 29-602, species assumed): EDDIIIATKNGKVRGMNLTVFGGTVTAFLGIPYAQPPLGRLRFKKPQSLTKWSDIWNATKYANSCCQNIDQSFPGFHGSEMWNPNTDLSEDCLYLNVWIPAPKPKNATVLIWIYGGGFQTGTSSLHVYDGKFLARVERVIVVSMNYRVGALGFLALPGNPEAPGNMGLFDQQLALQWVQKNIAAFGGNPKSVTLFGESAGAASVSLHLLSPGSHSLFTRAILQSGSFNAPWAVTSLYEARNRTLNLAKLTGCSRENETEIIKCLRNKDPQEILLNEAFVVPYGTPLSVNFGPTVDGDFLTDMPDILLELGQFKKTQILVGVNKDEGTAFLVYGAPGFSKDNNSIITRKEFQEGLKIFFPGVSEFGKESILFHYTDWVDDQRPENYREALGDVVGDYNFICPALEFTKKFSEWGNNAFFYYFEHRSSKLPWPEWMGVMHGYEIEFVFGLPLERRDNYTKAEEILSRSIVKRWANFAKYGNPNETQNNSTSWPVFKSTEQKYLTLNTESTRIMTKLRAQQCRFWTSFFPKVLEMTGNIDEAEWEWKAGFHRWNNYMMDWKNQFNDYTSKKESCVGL
Method: (§1) Cholinesterase inhibitory activities of all analogs were evaluated spectrometrically using the modified Ellman method as previously reported. […] The absorbance of each well was measured at 415 nm using a microplate reader. IC50 and inhibition values were calculated with the software GraphPad Prism as the mean of three independent experiments and expressed as mean ± SEM[42],[43].

AChE [2] = target: T2, AChE (Homo sapiens, UniProt P22303); experiment: biochemical; conditions: for inhibition at 50 µM: read-out: AChE % inhibition at 50 µM
T2 sequence (P22303 32-614): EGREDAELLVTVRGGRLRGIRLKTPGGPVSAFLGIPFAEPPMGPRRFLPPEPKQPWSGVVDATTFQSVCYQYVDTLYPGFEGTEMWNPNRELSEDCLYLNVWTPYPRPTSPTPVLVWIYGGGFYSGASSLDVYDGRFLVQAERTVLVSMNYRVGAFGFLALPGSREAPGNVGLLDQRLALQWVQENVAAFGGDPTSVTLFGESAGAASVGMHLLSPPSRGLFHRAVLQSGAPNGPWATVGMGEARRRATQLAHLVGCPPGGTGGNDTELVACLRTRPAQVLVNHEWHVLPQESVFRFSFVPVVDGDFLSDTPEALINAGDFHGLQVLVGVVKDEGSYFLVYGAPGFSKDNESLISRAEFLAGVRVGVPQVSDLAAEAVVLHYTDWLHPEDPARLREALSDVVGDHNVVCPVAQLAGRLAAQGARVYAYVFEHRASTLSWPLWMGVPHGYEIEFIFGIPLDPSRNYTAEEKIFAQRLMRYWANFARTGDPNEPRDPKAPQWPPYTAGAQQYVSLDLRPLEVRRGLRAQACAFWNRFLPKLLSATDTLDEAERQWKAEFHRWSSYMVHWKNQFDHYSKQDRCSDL
Method: as §1

AChE [3] = target: T2, AChE; experiment: Enzyme kinetic study against AChE (Lineweaver–Burk); assay type: biochemical
Method: To investigate the type of inhibition of AChE and BChE, kinetic studies of 3m were conducted using various concentrations of ATCI or BTCI as a substrate.
(§2) A Lineweaver–Burk plot was generated to identify the type of inhibition and the Michaelis–Menten constant (Km) value was determined from plot between reciprocal of the substrate concentration (1/[S]) and reciprocal of enzyme rate (1/V) over the various inhibitor concentrations[44],[45].

BChE [4] = target: T1, BChE; experiment: Enzyme kinetic study against BChE (Lineweaver–Burk); assay type: biochemical
Method: as §2

hBChE = tested on: hBChE; design: method as in PMID 23078965; conditions: previously reported; cited from earlier work
hAChE = tested on: hAChE; design: method as in PMID 23078965; conditions: previously reported; cited from earlier work
AChE [5] = target: T2, AChE; design: method as in doi:10.5530/ijper.52.4.75; conditions: previously reported; unit inferred; cited from earlier work
BChE [6] = target: T1, BChE; design: method as in doi:10.5530/ijper.52.4.75; conditions: previously reported; unit inferred; cited from earlier work

For `Cc1ccc(Nc2ncc(-c3ccc(Br)cc3)cc2[N+](=O)[O-])cc1` [3l, 5-(4-Bromophenyl)-3-nitro-N-(p-tolyl)pyridin-2-amine], the inhibition at 50 µM (BChE [1]; 50 µM, mean ± S.E) was 6.96 ± 0.74% and the inhibition at 50 µM (AChE [2]; 50 µM, mean ± S.E) was 24.9 ± 5.01%.
With `O=[N+]([O-])c1cc(-c2cccc3ccccc23)cnc1Nc1cccc2ccccc12` [3q, N,5-Di(naphthalen-1-yl)-3-nitropyridin-2-amine] the inhibition at 50 µM (BChE [1]; 50 µM, mean ± S.E) was 53.07 ± 0.42% and the inhibition at 50 µM (AChE [2]; 50 µM, mean ± S.E) was 34 ± 2.39%.
For `O=[N+]([O-])c1cc(-c2ccc(Cl)cc2)cnc1Nc1ccc(Cl)cc1` [3g, N,5-Bis(4-chlorophenyl)-3-nitropyridin-2-amine], the inhibition at 50 µM (BChE [1]; 50 µM, mean ± S.E) was 12.3 ± 0.99% and the inhibition at 50 µM (AChE [2]; 50 µM, mean ± S.E) was 17.8 ± 2.74%.
With `CC(C)(C)c1cc[n+](-c2cnc(Nc3ccc(Cl)cc3)c([N+](=O)[O-])c2)cc1.[O-][Cl+3]([O-])([O-])[O-]` [3m, 4-(Tert-butyl)-6ʹ-((4-chlorophenyl)amino)-5'-nitro-[1,3'-bipyridin]-1-ium perchlorate] the IC50 (BChE [1]) was 20.7 ± 1.01 µM, the “selectivity ratio for BChE over AChE” value (BChE [1]) was 1.686 and the inhibition at 50 µM (BChE [1]) was 76.7 ± 6.01%. The “type of inhibition, AChE” value (AChE [3]; Lineweaver–Burk plot) was “mixed inhibition; also recorded: mix-type inhibition”, the Ki (AChE [3]; secondary plot of Lineweaver–Burk data, substrate ATCI, read-out: inhibition constant (Ki), AChE) was 8.92 µM and the IC50 (AChE [2]) was 34.8 ± 3.71 µM. The inhibition at 50 µM (AChE [2]) was 74.3 ± 5.86%, the “type of inhibition, BChE” value (BChE [4]; Lineweaver–Burk plot) was “mixed type of inhibition; also recorded: mix-type inhibition” and the “Kis, BChE” value (BChE [4]; plot of 1/Vmax vs inhibitor concentration, substrate BTCI) was 46.27 µM. It also gave a Ki (BChE [4]; plot of slope vs inhibitor concentration, substrate BTCI) of 17.5 µM.
In the case of `COc1ccc(Nc2ncc(-c3ccccc3)cc2[N+](=O)[O-])cc1` [3a, N-(4-Methoxyphenyl)-3-nitro-5-phenylpyridin-2-amine], the inhibition at 50 µM (BChE [1]; 50 µM, mean ± S.E) is reported as 22.1 ± 0.33% and the inhibition at 50 µM (AChE [2]; 50 µM, mean ± S.E) is reported as 28.1 ± 3.93%.
With `O=[N+]([O-])c1cc(-c2ccc(F)cc2)cnc1Nc1ccc(Cl)cc1` [3e, N-(4-Chlorophenyl)-5-(4-fluorophenyl)-3-nitropyridin-2-amine] the “BChE inhibition, outcome in words” value (BChE [1]) was “almost inactive”, the inhibition at 50 µM (BChE [1]; 50 µM, mean ± S.E) was 19.6 ± 1.49% and the inhibition at 50 µM (AChE [2]; 50 µM, mean ± S.E) was 19.3 ± 3.3%.
Compound `Cc1ccccc1Nc1ncc(-c2cccc3ccccc23)cc1[N+](=O)[O-]` [3n, 5-(Naphthalen-1-yl)-3-nitro-N-(o-tolyl)pyridin-2-amine] has an inhibition at 50 µM (BChE [1]; 50 µM, mean ± S.E) of 38.9 ± 2.97% and an inhibition at 50 µM (AChE [2]; 50 µM, mean ± S.E) of 40.7 ± 2.6%.
In the case of `N#Cc1cc(C#N)c(NCCCC2CCN(Cc3ccccc3)CC2)nc1N` [A], the IC50 (hBChE) is listed as 6.6 ± 0.7 µM, the IC50 (hAChE) is listed as 0.0094 ± 0.0004 µM and the “selectivity against hAChE than hBChE” value (hAChE) is listed as 703 fold.
In the case of `O=C(N/N=C(/c1ccc(O)cc1)c1cccc(O)c1)Nc1ccncc1` [B], the IC50 (AChE [5]) is given as 5.58 ± 0.016 µM and the IC50 (BChE [6]) is given as 6.44 ± 0.65 µM.
For `COc1ccc(Nc2ncc(-c3ccc(F)cc3)cc2[N+](=O)[O-])cc1` [3c, 5-(4-Fluorophenyl)-N-(4-methoxyphenyl)-3-nitropyridin-2-amine], the “BChE inhibition, outcome in words” value (BChE [1]) was “almost inactive”, the inhibition at 50 µM (BChE [1]; 50 µM, mean ± S.E) was 3.4 ± 1.63% and the inhibition at 50 µM (AChE [2]; 50 µM, mean ± S.E) was 10.7 ± 2.31%.
In the case of `O=[N+]([O-])c1cc(-c2cccc3ccccc23)cnc1Nc1ccc(Cl)cc1` [3p, N-(4-Chlorophenyl)-5-(naphthalen-1-yl)-3-nitropyridin-2-amine], the inhibition at 50 µM (BChE [1]; 50 µM, mean ± S.E) is reported as 11.7 ± 0.12% and the inhibition at 50 µM (AChE [2]; 50 µM, mean ± S.E) is reported as 21.4 ± 1.86%.
In the case of `O=[N+]([O-])c1cc(-c2ccc(Cl)cc2)cnc1Nc1cccc2ccccc12` [3i, 5-(4-Chlorophenyl)-N-(naphthalen-1-yl)-3-nitropyridin-2-amine], the inhibition at 50 µM (BChE [1]; 50 µM, mean ± S.E) is reported as 35.3 ± 5.14% and the inhibition at 50 µM (AChE [2]; 50 µM, mean ± S.E) is reported as 39.7 ± 1.67%.
Work on `Cc1ccc(Nc2ncc(-c3cccc4ccccc34)cc2[N+](=O)[O-])cc1` [3o, 5-(Naphthalen-1-yl)-3-nitro-N-(p-tolyl)pyridin-2-amine] yielded an inhibition at 50 µM (BChE [1]; 50 µM, mean ± S.E) of 22.8 ± 2.7% and an inhibition at 50 µM (AChE [2]; 50 µM, mean ± S.E) of 35.6 ± 4.63%.
For `Cc1ccccc1Nc1ncc(-c2ccc(Cl)cc2)cc1[N+](=O)[O-]` [3h, 5-(4-Chlorophenyl)-3-nitro-N-(o-tolyl)pyridin-2-amine], the inhibition at 50 µM (BChE [1]; 50 µM, mean ± S.E) was 14.6 ± 1.95% and the inhibition at 50 µM (AChE [2]; 50 µM, mean ± S.E) was 23.1 ± 8.61%.
In the case of `COc1ccc(Nc2ncc(-c3ccc(Cl)cc3)cc2[N+](=O)[O-])cc1` [3f, 5-(4-Chlorophenyl)-N-(4-methoxyphenyl)-3-nitropyridin-2-amine], the inhibition at 50 µM (BChE [1]; 50 µM, mean ± S.E) is reported as 31.7 ± 1.1% and the inhibition at 50 µM (AChE [2]; 50 µM, mean ± S.E) is reported as 33 ± 1.86%.
With `O=[N+]([O-])c1cc(-c2ccc(Br)cc2)cnc1Nc1ccc(Cl)cc1` [3k, 5-(4-Bromophenyl)-N-(4-chlorophenyl)-3-nitropyridin-2-amine] the inhibition at 50 µM (BChE [1]; 50 µM, mean ± S.E) was 12.8 ± 1.7% and the inhibition at 50 µM (AChE [2]; 50 µM, mean ± S.E) was 27.8 ± 1.75%.
`O=[N+]([O-])c1cc(-c2ccccc2)cnc1Nc1ccc(Cl)cc1` [3b, N-(4-Chlorophenyl)-3-nitro-5-phenylpyridin-2-amine] showed an inhibition at 50 µM (BChE [1]; 50 µM, mean ± S.E) of 27.5 ± 1.92% and an inhibition at 50 µM (AChE [2]; 50 µM, mean ± S.E) of 59.9 ± 11%.
Work on `COc1ccc(Nc2ncc(-c3ccc(Br)cc3)cc2[N+](=O)[O-])cc1` [3j, 5-(4-Bromophenyl)-N-(4-methoxyphenyl)-3-nitropyridin-2-amine] yielded an inhibition at 50 µM (BChE [1]; 50 µM, mean ± S.E) of 46.1 ± 0.92% and an inhibition at 50 µM (AChE [2]; 50 µM, mean ± S.E) of 38.8 ± 3.27%.
`Cc1ccc(Nc2ncc(-c3ccc(F)cc3)cc2[N+](=O)[O-])cc1` [3d, 5-(4-Fluorophenyl)-3-nitro-N-(p-tolyl)pyridin-2-amine] showed an inhibition at 50 µM (BChE [1]; 50 µM, mean ± S.E) of 46.4 ± 2.42% and an inhibition at 50 µM (AChE [2]; 50 µM, mean ± S.E) of 39.4 ± 1.56%.
